Measured values: the supplement of paper PMC10307832

What was measured:
Experiment in all cases: relative viability (nuclei count vs DMSO), 5 days (fraction); higher = more cells survive
[1] = compound: CS(=O)(=O)N1CCN(Cc2cc3nc(-c4cccc5[nH]ncc45)nc(N4CCOCC4)c3s2)CC1 [Pictilisib] + O=C(CCCCCCC(=O)Nc1ccccc1)NO [Vorinostat] (partner 1 µM)
Procedure, shortened: (§1)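 For relative viability, nuclei counts in treated wells were divided by those in vehicle wells. Lung cancer cell lines had been pin-tool dosed in 1536-well plates the day after seeding and cultured for 5 days, then fixed and stained in one step (final 0.05% Triton X-100, 1% formaldehyde, 1 ug/ml Hoechst) and imaged at 4×. Doses were one drug alone or a fixed anchor-drug dose plus five library-drug doses (not always all listed) in √10 steps, and values are duplicate-plate medians.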

[2] = compound: CS(=O)(=O)N1CCN(Cc2cc3nc(-c4cccc5[nH]ncc45)nc(N4CCOCC4)c3s2)CC1 [Pictilisib] + Cc1nc(Nc2ncc(C(=O)Nc3c(C)cccc3Cl)s2)cc(N2CCN(CCO)CC2)n1 [Dasatinib] (partner 0.075 µM)
Procedure, shortened: as §1

[3] = compound: NC1(c2ccc(-c3nc4ccn5c(=O)[nH]nc5c4cc3-c3ccccc3)cc2)CCC1 [MK-2206] + Nc1nc2[nH]cc(CCc3ccc(C(=O)N[C@@H](CCC(=O)O)C(=O)O)cc3)c2c(=O)[nH]1 [Pemetrexed] (partner 0.2 µM)
Procedure, shortened: as §1

[4] = compound: NC1(c2ccc(-c3nc4ccn5c(=O)[nH]nc5c4cc3-c3ccccc3)cc2)CCC1 [MK-2206] + Cc1nc(Nc2ncc(C(=O)Nc3c(C)cccc3Cl)s2)cc(N2CCN(CCO)CC2)n1 [Dasatinib] (partner 0.075 µM)
Procedure, shortened: as §1

[5] = compound: NC1(c2ccc(-c3nc4ccn5c(=O)[nH]nc5c4cc3-c3ccccc3)cc2)CCC1 [MK-2206] + CC(=O)Nc1cccc(-n2c(=O)n(C3CC3)c(=O)c3c(Nc4ccc(I)cc4F)n(C)c(=O)c(C)c32)c1 [Trametinib] (partner 0.02 µM)
Procedure, shortened: as §1

UMC-11
relative viability ([1]; first compound 0.02 µM): 0.366
relative viability ([1]; first compound 0.06325 µM): 0.414
relative viability ([1]; first compound 0.6325 µM): 0.464
relative viability ([1]; first compound 2 µM): 0.354
relative viability ([2]; first compound 0.02 µM): 0.449
relative viability ([2]; first compound 0.06325 µM): 0.461
relative viability ([2]; first compound 0.6325 µM): 0.458
relative viability ([2]; first compound 2 µM): 0.515
relative viability ([3]; first compound 0.01 µM): 0.862
relative viability ([3]; first compound 0.03162 µM): 0.763
relative viability ([3]; first compound 0.3162 µM): 0.836
relative viability ([3]; first compound 1 µM): 0.791
relative viability ([4]; first compound 0.01 µM): 0.465
relative viability ([4]; first compound 0.03162 µM): 0.434
relative viability ([4]; first compound 0.3162 µM): 0.503
relative viability ([4]; first compound 1 µM): 0.475
relative viability ([5]; first compound 0.01 µM): 0.594
relative viability ([5]; first compound 0.03162 µM): 0.717
relative viability ([5]; first compound 0.3162 µM): 0.772
relative viability ([5]; first compound 1 µM): 0.966
